Consider 5 compounds from patent US8618154B2, “LXR modulators” (Bristol-Myers Squibb Company, priority 2009, dated 2013).

Data set [1] can be described thus: High throughput metabolic stability in human microsomes. It is filed as in vitro ADME. The conditions noted are these: parent compound remaining at 10 minutes, human liver microsomes. The protocol: The metabolic stability assay evaluates CYP-mediated metabolic stability in vitro using Human liver microsomes after a ten-minute incubation.
Test compound is received as a 3.5 mM stock solution in 100 percent DMSO. Compound is diluted to create a 50 μM acetonitrile (ACN) solution containing 1.4% DMSO, which is then used as a 100× stock for incubation with human liver microsomes. Each compound is tested in duplicate. Compound, NADPH and liver microsome solutions are combined for incubation in three steps: • 1) 152 μl of liver microsome suspension, protein concentration of 1.1 mg/ml in 100 mM NaPi, pH 7.4, 5 mM MgCl2 buffer, is pre-warmed at 37° C. • 2) 1.7 μl of 50 μM compound (98.6% ACN, 1.4% DMSO) is added to the same tube and pre-incubated at 37° C. for 5 minutes. • 3) The reaction is initiated by the addition of 17 μl of pre-warmed 10 mM NADPH solution in 100 mM NaPi, pH 7.4.
Reaction components are mixed well, and 75 μl are immediately transferred into 150 μl quench/stop solution (zero-time point, T0). Reactions are incubated at 37° C. for 10 minutes and then an additional 75 μl aliquot is transferred into 150 μl quench solution. Acetonitrile containing 100 μM DMN (a UV standard for injection quality control), is used as the quench solution to terminate metabolic reactions.
Quenched mixtures are centrifuged at 1500 rpm (˜500× g) in an Allegra X-12 centrifuge, SX4750 rotor (Beckman Coulter Inc., Fullerton, Calif.) for fifteen minutes to pellet denatured microsomes. A volume of 90 μl of supernatant extract, containing the mixture of parent compound and its metabolites, is then transferred to a separate 96-well plate for UV-LC/MS-MS analysis to determine the per cent of parent compound that is remaining in the mixture.
The mass spectrometric conditions obtained from automated infusion are used to analyze incubation samples from the Metabolic Stability assay. The injection volume is 5 μl and the flow rate is 0.8 ml/min. The gradient used is show in the table below. All samples are injected with the gradient using mobile phase A and B first. If necessary (for instance, for chromatographic reasons), samples are re-injected with the same gradient, but using mobile phase C and D. All LC-MS/MS analysis parameters are captured electronically in the raw data files.
Peak integration is performed with the Xcalibur™ software. The percent remaining calculation is performed by comparing the LC-MS/MS peak areas from the T10minute samples to those from the T0minute samples for each compound.

Data set [2] relates to ABCA1 gene expression. Nature of the data set: Human whole blood assay (hWBA), ABCA1 mRNA induction. Format: cell-based. The note with it: for Emax: read-out: hWBA hABCA1 L30 Max P (%). The protocol:
Human whole blood was collected in EDTA containing tubes and 0.5 mL aliquots were immediately mixed in a 96 well block with the appropriate serial dilution of test compound, in 0.5% DMSO. Compounds were incubated with blood at 37° C. with constant rocking for 4 hours. After incubation, cells were lysed in ABI Nucleic Acid Purification Lysis Solution (Applied Biosystems catalog #4305895) and frozen at −80° C. Following cell lysis, total RNA was purified using an ABI 6100 RNA prep station according to the protocol provided by the manufacturer. cDNAs were synthesized, and mRNAs were quantitated using SYBR-Green Quantitative PCR (Q-PCR) on an ABI Prism 7900HT Sequence Detection System and reagents from Quanta Bioscience Inc (Quanta Bioscience catalog #95047 and 95055).
The quantity of each mRNA was determined by the ΔΔCT method (Michael W. Pfaffl. A new mathematical model for relative quantification in real-time RT-PCR. Nucleic Acids Research, 2001, Vol. 29, No. 9 e45) and normalized to the quantity of two control mRNAs, i.e. ribosomal protein L-30 (L-30) and beta-2-microglobulin (B2M). The induction of ABCA1 and ABCG1 by test compound was graphed as a percent of the reference compound, 2-(4-(5-(5-cyano-1-(2,4-difluorobenzyl)-6-oxo-4-(trifluoromethyl)-1,6-dihydropyridin-2-yl)thiophen-2-yl)-3-methylphenyl)acetic acid, and potency (EC50) and activity (% MAX) were calculated by fitting a sigmoidal response curve as a function of log transformed compound concentration using XLFit software according to the equation y=A+((B−A)/(1+((C/x)^D))).

[3] abbreviates: Homo sapiens, 4 h, percent of reference pan agonist (maximal activity defined as 100%).
Where [4] appears, read: human whole blood, 4 hours, ABCA1 mRNA normalized to L30, read-out: hWBA hABCA1 L30 EC50.

SMILES strings stand for the structures. Where two headings read alike, the source gives them in different places.

As to `Cc1ccccc1Cc1nc(C(C)(C)O)cn1-c1ccc(-c2cc(F)c(CO)c(S(C)(=O)=O)c2)cc1` [Example 17, 2-(1-(3′-fluoro-4′-(hydroxymethyl)-5′-(methylsulfonyl)biphenyl-4-yl)-2-(2-methylbenzyl)-1H-imidazol-4-yl)propan-2-ol], in data set [1], the “Human Microsome % Remaining” value was over 80%. For the same compound, the Emax in data set [2] (setting [3]) turned out to be 20%. Besides, the concentration giving a half-maximal response (EC50) in data set [2] (setting [4]) was under 100 nM.
Taken in the same sequence, the figures for `CC(C)(O)c1cn(-c2ccc(-c3cc(F)c(CO)c(S(C)(=O)=O)c3)cc2)c(Cc2c(Cl)cccc2Cl)n1` [Example 18, 2-(2-(2,6-dichlorobenzyl)-1-(3′-fluoro-4′-(hydroxymethyl)-5′-(methylsulfonyl)biphenyl-4-yl)-1H-imidazol-4-yl)propan-2-ol] were over 80%, 51% and under 100 nM.
Taken in the same sequence, the figures for `CC(C)(O)c1cn(-c2ccc(-c3cc(F)c(CO)c(S(C)(=O)=O)c3)cc2)c(Cc2cc(F)ccc2Cl)n1` [Example 19, 2-[2-(2-Chloro-5-fluoro-benzyl)-1-(3′-fluoro-4′-hydroxymethyl-5′-methanesulfonyl-biphenyl-4-yl)-1H-imidazol-4-yl]-propan-2-ol] were over 80%, 35% and under 100 nM.
Taken in the same sequence, the figures for `CC(C)(O)c1cn(-c2ccc(-c3cc(F)c(CO)c(S(C)(=O)=O)c3)cc2F)c(Cc2ccccc2Cl)n1` [Example 20, 2-[2-(2-Chloro-benzyl)-1-(3,3′-difluoro-4′-hydroxymethyl-5′-methanesulfonyl-biphenyl-4-yl)-1H-imidazol-4-yl]-propan-2-ol] were over 80%, 35% and under 100 nM.
As to `CC(c1c(Cl)cccc1Cl)c1nc(C(C)(C)O)cn1-c1ccc(-c2cc(F)c(CO)c(S(C)(=O)=O)c2)cc1F` (stereo not drawn) [Example 21, 2-{2-[1-(2,6-dichlorophenyl)ethyl]-1-[3,3′-difluoro-4′-(hydroxymethyl)-5′-(methylsulfonyl)biphenyl-4-yl]-1H-imidazol-4-yl}propan-2-ol], the “Human Microsome % Remaining” value in data set [1] is reported as over 80%. The EC50 in data set [2] (Homo sapiens, 4 h, read-out: hWBA hABCA1 L30 EC50 (nM)) was under 100 nM. The Emax in data set [2] (Homo sapiens, 4 h) was determined as 17%.
